Measured values: ChEMBL document CHEMBL1201862, “PubChem BioAssay data set” (2004)
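Protocol summary: plate cells (96-well), add compound at 5 concentrations, incubate 48 h, interpolate endpoints linearly. At the GI50, growth is halved.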 The source made the active and inactive calls. Rule as the data show it: active = GI50 up to about 1.1 µM and inactive = higher.

Tests used:
Test in all cases: inhibition of tumour cell growth, NCI panel, 48 h
MDA-MB-231 = tested on: MDA-MB-231
SK-MEL-28 = tested on: SK-MEL-28
EKVX = tested on: EKVX
SNB-75 = tested on: SNB-75
HCT-116 = tested on: HCT-116
HL-60 = tested on: HL-60
LOX IMVI = tested on: LOX IMVI
SF-295 = tested on: SF-295
Malme-3M = tested on: Malme-3M
BT-549 = tested on: BT-549
U-251 = tested on: U-251
SK-MEL-2 = tested on: SK-MEL-2
786-0 = tested on: 786-0
HCT-15 = tested on: HCT-15
ACHN = tested on: ACHN
HOP-62 = tested on: HOP-62
MDA-N = tested on: MDA-N
RPMI-8226 = tested on: RPMI-8226
SNB-19 = tested on: SNB-19
SK-MEL-5 = tested on: SK-MEL-5

SMILES | GI50 (MDA-MB-231) | GI50 (SK-MEL-28) | GI50 (EKVX) | GI50 (SNB-75) | GI50 (HCT-116) | GI50 (HL-60) | GI50 (LOX IMVI) | GI50 (SF-295) | GI50 (Malme-3M) | GI50 (BT-549) | GI50 (U-251) | GI50 (SK-MEL-2) | GI50 (786-0) | GI50 (HCT-15) [µM] | GI50 (ACHN) | GI50 (HOP-62) | GI50 (MDA-N) | GI50 (RPMI-8226) | GI50 (SNB-19) | GI50 (SK-MEL-5)
O=c1[nH]c2ccc(CC(=S)N3CCOCC3)cc2o1 | > 100 µM (inactive) | > 100 µM (inactive) | > 100 µM (inactive) | > 100 µM (inactive) | > 100 µM (inactive) | 89.9 µM (inactive) | > 100 µM (inactive) | > 100 µM (inactive) | > 100 µM (inactive) | > 100 µM (inactive) | > 100 µM (inactive) | > 100 µM (inactive) | > 100 µM (inactive) | > 100 | > 100 µM (inactive) | > 100 µM (inactive) | – | – | – | –
COC1=C2C[C@](OC)(C#CC=CC#CC2O)CC1(C)C (stereo partly drawn) | > 100 µM (inactive) | > 100 µM (inactive) | > 100 µM (inactive) | > 100 µM (inactive) | > 100 µM (inactive) | 55 µM (inactive) | > 100 µM (inactive) | > 100 µM (inactive) | > 100 µM (inactive) | > 100 µM (inactive) | > 100 µM (inactive) | – | > 100 µM (inactive) | > 100 | > 100 µM (inactive) | > 100 µM (inactive) | > 100 µM (inactive) | 95.5 µM (inactive) | > 100 µM (inactive) | > 100 µM (inactive)
COC(=O)C1CCC(=O)N1CN(C(C)=O)c1cccc(O)c1 (stereo not drawn) | > 100 µM (inactive) | > 100 µM (inactive) | > 100 µM (inactive) | > 100 µM (inactive) | > 100 µM (inactive) | > 100 µM (inactive) | > 100 µM (inactive) | > 100 µM (inactive) | > 100 µM (inactive) | – | > 100 µM (inactive) | > 100 µM (inactive) | > 100 µM (inactive) | > 100 | > 100 µM (inactive) | > 100 µM (inactive) | > 100 µM (inactive) | > 100 µM (inactive) | > 100 µM (inactive) | > 100 µM (inactive)
C=C1C(=O)O[C@@H]2/C=C(/C)[C@@H](OC(C)=O)C/C=C(\C)C(O)[C@@H](OC(=O)/C(C)=C\C)C12 (stereo partly drawn) | 19.1 µM (inactive) | 18.2 µM (inactive) | 32.1 µM (inactive) | 79.8 µM (inactive) | 16.3 µM (inactive) | 14.8 µM (inactive) | 14.6 µM (inactive) | > 100 µM (inactive) | – | 20.1 µM (inactive) | 41.1 µM (inactive) | 27.6 µM (inactive) | 15.1 µM (inactive) | 16.5 | 18.7 µM (inactive) | > 100 µM (inactive) | – | 21.6 µM (inactive) | > 100 µM (inactive) | 15.8 µM (inactive)
O=S(=O)(c1ccc(/N=C2\NC(c3ccc(O)cc3)(c3ccccc3O)c3ccccc32)cc1)c1ccc(/N=C2/NC(c3ccc(O)cc3)(c3ccccc3O)c3ccccc32)cc1 (stereo not drawn) | – | – | 5.96 µM (inactive) | 3.32 µM (inactive) | 2.23 µM (inactive) | 1.02 µM (active) | 2.96 µM (inactive) | 5.28 µM (inactive) | 2.32 µM (inactive) | – | – | 3.73 µM (inactive) | 3.02 µM (inactive) | 5.79 | 20.2 µM (inactive) | 5.28 µM (inactive) | 2.99 µM (inactive) | 5.22 µM (inactive) | 5.08 µM (inactive) | 4.46 µM (inactive)
O=C(Cc1ccccc1)NNc1nc(NNC(=O)c2ccncc2)nc(Nc2ccc(Cl)cc2)n1 | > 10 µM (inactive) | > 10 µM (inactive) | > 10 µM (inactive) | > 10 µM (inactive) | – | > 10 µM (inactive) | > 10 µM (inactive) | – | > 10 µM (inactive) | > 10 µM (inactive) | > 10 µM (inactive) | – | > 10 µM (inactive) | > 10 | – | > 10 µM (inactive) | > 10 µM (inactive) | > 10 µM (inactive) | – | > 10 µM (inactive)
CCOC(=O)N1CCC2(CC1)C[C@](C)(C(C)=O)C(C)O2 (stereo partly drawn) | > 100 µM (inactive) | > 100 µM (inactive) | > 100 µM (inactive) | – | – | 2.81 µM (inactive) | > 100 µM (inactive) | > 100 µM (inactive) | > 100 µM (inactive) | – | > 100 µM (inactive) | > 100 µM (inactive) | > 100 µM (inactive) | > 100 | > 100 µM (inactive) | > 100 µM (inactive) | – | > 100 µM (inactive) | > 100 µM (inactive) | > 100 µM (inactive)
O=[N+]([O-])c1ccc(Cl)cc1C1ON=C(c2ccccc2)N1C12CC3CC(CC(C3)C1)C2 (stereo not drawn) | > 100 µM (inactive) | > 100 µM (inactive) | > 100 µM (inactive) | 0.0245 µM (active) | 86.9 µM (inactive) | 73.6 µM (inactive) | 57.5 µM (inactive) | > 100 µM (inactive) | 49.4 µM (inactive) | – | > 100 µM (inactive) | > 100 µM (inactive) | > 100 µM (inactive) | > 100 | > 100 µM (inactive) | > 100 µM (inactive) | > 100 µM (inactive) | > 100 µM (inactive) | > 100 µM (inactive) | > 100 µM (inactive)
CSC1(CC(=O)N2CCCCC2)C(=O)Nc2ccccc21 (stereo not drawn) | – | > 100 µM (inactive) | > 100 µM (inactive) | > 100 µM (inactive) | > 100 µM (inactive) | – | > 100 µM (inactive) | > 100 µM (inactive) | > 100 µM (inactive) | > 100 µM (inactive) | > 100 µM (inactive) | > 100 µM (inactive) | > 100 µM (inactive) | > 100 | > 100 µM (inactive) | > 100 µM (inactive) | – | > 100 µM (inactive) | > 100 µM (inactive) | > 100 µM (inactive)
CNC(=O)C(NC(=O)[C@H](CC(C)C)NC(=O)[C@@H](S)CCN1C(=O)N(C)C(C)(C)C1=O)C(C)(C)C (stereo partly drawn) | – | > 100 µM (inactive) | > 100 µM (inactive) | – | > 100 µM (inactive) | > 100 µM (inactive) | 2.91 µM (inactive) | > 100 µM (inactive) | > 100 µM (inactive) | > 100 µM (inactive) | – | > 100 µM (inactive) | > 100 µM (inactive) | > 100 | > 100 µM (inactive) | > 100 µM (inactive) | > 100 µM (inactive) | > 100 µM (inactive) | > 100 µM (inactive) | > 100 µM (inactive)
CSC(SC)=C1C(=O)N(c2ccccc2)N=C1C | 33.8 µM (inactive) | – | 24 µM (inactive) | 21.2 µM (inactive) | 22.9 µM (inactive) | – | 34 µM (inactive) | 25.9 µM (inactive) | 21.7 µM (inactive) | 21.6 µM (inactive) | 35.1 µM (inactive) | 20 µM (inactive) | 23.2 µM (inactive) | 24.1 | 27.4 µM (inactive) | 35.4 µM (inactive) | 34.8 µM (inactive) | – | 30.9 µM (inactive) | 10.3 µM (inactive)
CC(C)(O)/C=C\P(=O)(O)O | – | > 100 µM (inactive) | > 100 µM (inactive) | > 100 µM (inactive) | > 100 µM (inactive) | – | > 100 µM (inactive) | > 100 µM (inactive) | > 100 µM (inactive) | – | > 100 µM (inactive) | > 100 µM (inactive) | > 100 µM (inactive) | > 100 | > 100 µM (inactive) | > 100 µM (inactive) | > 100 µM (inactive) | – | > 100 µM (inactive) | > 100 µM (inactive)
OC1c2ccccc2CCC1C(O)(C(F)(F)F)C(F)(F)F (stereo not drawn) | 11 µM (inactive) | > 100 µM (inactive) | > 100 µM (inactive) | 45.8 µM (inactive) | > 100 µM (inactive) | > 100 µM (inactive) | > 100 µM (inactive) | > 100 µM (inactive) | > 100 µM (inactive) | – | > 100 µM (inactive) | > 100 µM (inactive) | > 100 µM (inactive) | > 100 | > 100 µM (inactive) | > 100 µM (inactive) | > 100 µM (inactive) | > 100 µM (inactive) | > 100 µM (inactive) | > 100 µM (inactive)
CCOC(=S)SC/C(=N\OC(C)(C)OC)c1ccccc1 | > 100 µM (inactive) | 47.3 µM (inactive) | 48.9 µM (inactive) | 0.453 µM (active) | 24.9 µM (inactive) | 20.2 µM (inactive) | 16.3 µM (inactive) | 32.3 µM (inactive) | 45 µM (inactive) | 44 µM (inactive) | 41.9 µM (inactive) | 20.7 µM (inactive) | 55.1 µM (inactive) | 32.5 | 71.3 µM (inactive) | 42.1 µM (inactive) | 36.1 µM (inactive) | – | > 100 µM (inactive) | 41 µM (inactive)
Cn1c(S)nnc1CNc1ccc(-c2nnc(S)n2C)cc1 | > 100 µM (inactive) | > 100 µM (inactive) | > 100 µM (inactive) | > 100 µM (inactive) | > 100 µM (inactive) | > 100 µM (inactive) | > 100 µM (inactive) | > 100 µM (inactive) | > 100 µM (inactive) | > 100 µM (inactive) | > 100 µM (inactive) | > 100 µM (inactive) | > 100 µM (inactive) | > 100 | > 100 µM (inactive) | > 100 µM (inactive) | > 100 µM (inactive) | – | > 100 µM (inactive) | > 100 µM (inactive)
COc1ccc(C(=O)/C=C/c2ccc(OCC(=N)N)cc2)cc1 | 12.9 µM (inactive) | 15.3 µM (inactive) | 16.4 µM (inactive) | 5.73 µM (inactive) | 4.55 µM (inactive) | – | – | 16.3 µM (inactive) | 17.9 µM (inactive) | 17.9 µM (inactive) | 13.9 µM (inactive) | – | 16.3 µM (inactive) | 17.2 | 17.6 µM (inactive) | 15.8 µM (inactive) | 16.7 µM (inactive) | – | 15.8 µM (inactive) | 17.3 µM (inactive)
